Laboratory results: PubChem BioAssay AID651630 (Sanford-Burnham Center for Chemical Genomics, 2012)
Calls of active or inactive are those of the source.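 Rule for the calls: active = lipid-stain IC50 at or below a set limit, with nuclear-stain toxicity IC50 at least five times higher; inactive = the rest.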

What was measured:
TAG = assay: triacylglycerol accumulation inhibitor potency, dose response, cell-based, panel, Nile Red and DAPI fluorescence, H9c2 (AID 651630); settings: H9c2 cells, Nile Red TAG fluorescence, oleic acid;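 note: cells exposed to compound overnight before fixation and staining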
DAPI = assay: as above; settings: H9c2 cells, DAPI nuclear fluorescence (cytotoxicity counter-readout), oleic acid

Row | IC50 (TAG; mean of runs) | IC50 (TAG; run 1) [µM] | IC50 (TAG; run 2) [µM] | Structure (SMILES) | IC50 cytotoxicity (DAPI nuclear signal decrease) (DAPI; run 1) [µM] | IC50 cytotoxicity (DAPI nuclear signal decrease) (DAPI; run 2) [µM] | IC50 cytotoxicity (DAPI nuclear signal decrease) (DAPI; mean of runs)
1 | 2.94 µM | 2.57 | 3.32 | C=CCC[C@H](Cc1ccc(F)cc1)C(=O)OC[C@@H](NC(=O)[C@@H](CC=C)CC(=O)N(CCO)Cc1ccccc1)C(C)(C)C | > 25 | > 25 | –
2 | 7.63 µM | 7.99 | 7.28 | CC(C)(C)OC(=O)N(CCc1ccccc1)Cc1ccc(OCc2cccc(NC(=O)/C=C/c3ccccc3)c2)cc1 | > 25 | > 25 | > 25 µM (inactive)
3 | 5.46 µM | 6.27 | 4.66 | Cc1ccc(NC(=O)c2nc[nH]c2C(=O)NCCCCNC(=O)c2[nH]cnc2C(=O)Nc2ccc(C)cc2)cc1 | > 25 | > 25 | > 25 µM (inactive)
4 | 17 µM (inactive) | 19.2 | 14.8 | CCOc1c(Cl)cc(/C=C/C(=O)N(CC)CC(=O)NCc2cccs2)cc1OC | > 25 | > 25 | > 25 µM (inactive)
5 | 14.1 µM | 12.9 | 15.3 | COc1ccc(OC)c(Nc2nc(-c3sc(NC(=O)CC(C)C)nc3C)cs2)c1 | > 25 | > 25 | > 25 µM (inactive)
6 | 13.1 µM | 12.8 | 13.3 | COc1ccc(-c2cnc3c(NC=O)cc(-c4cccc(NS(C)(=O)=O)c4)cn23)cc1OC | 20.1 | 23 | 21.6 µM (inactive)
7 | > 25 µM (inactive) | > 25 | > 25 | O=C(CSc1cccc2cccnc12)Nc1ccc(S(=O)(=O)N2CCOCC2)cc1 | > 25 | > 25 | > 25 µM (inactive)
8 | – | > 25 | 18.1 | CC(=O)c1cccc(-c2ccc(CN3C(CC(C)C)C(=O)N(Cc4cn(CC5CCCCC5)nn4)CCS3(=O)=O)cc2)c1 (centres undefined) | > 25 | > 25 | > 25 µM (inactive)
9 | 18.3 µM (inactive) | 24.2 | 12.4 | CN1CCCC(n2nc(Cc3ccc(Cl)cc3)c3ccccc3c2=O)CC1 (centres undefined) | > 25 | > 25 | > 25 µM (inactive)
10 | 5.56 µM | 4.96 | 6.16 | CC(C)(C)NC(=O)C(c1ccc(-c2ccccc2)cc1)N(C[C@H]1CC[C@@H]([C@@H]2CC[C@H](CO)O2)O1)C(=O)c1ccc2ccccc2c1 (some centres undefined) | > 25 | > 25 | > 25 µM (inactive)
11 | 5.88 µM | 7.01 | 4.75 | O=C1C(NS(=O)(=O)c2cccs2)=C(N2CCN(c3cccc(C(F)(F)F)c3)CC2)C(=O)c2ccccc21 | > 25 | > 25 | > 25 µM (inactive)
12 | > 25 µM (inactive) | > 25 | > 25 | COC(=O)Nc1nc2ccc(Sc3ccccc3)cc2[nH]1 | > 25 | > 25 | > 25 µM (inactive)
13 | 3.47 µM | 3.44 | 3.5 | CCCCC(CC)C(=O)Nc1cc(C(=O)NCc2ccc(C)cc2)ccc1N1CCC2(CC1)CC(c1ccccc1)=NO2 (centres undefined) | > 25 | > 25 | –
14 | 8.97 µM | 7.74 | 10.2 | Cc1nn(-c2ccccc2)c2c1CC(=O)Nc1ccccc1-2 | > 25 | > 25 | > 25 µM (inactive)
15 | > 25 µM (inactive) | > 25 | > 25 | COCCNC(=O)c1cc2c(-c3ccc(Cl)cc3)nn(C)c2s1 | > 25 | > 25 | > 25 µM (inactive)
16 | > 25 µM (inactive) | > 25 | > 25 | CCOCCC(=O)Nc1ccc2c(c1)c(=O)n(C)n2C/C=C/c1ccccc1 | > 25 | > 25 | > 25 µM (inactive)
17 | > 25 µM (inactive) | > 25 | > 25 | COc1ccc(/C=C2/CCCc3ccccc3C2=O)cc1 | > 25 | > 25 | > 25 µM (inactive)
